Data set [1] concerns the target T1, PRMT5/MEP50-MTA protein complex (Homo sapiens, UniProt O14744).
T1 construct: purchased Viva Biotech
Nature of the data set: Thermal shift assay: thermal stability (melting temperature) of PRMT5/MEP50-MTA protein complex. The class given is binding. Particulars: final compound concentration 8 µM; 2 µM PRMT5/MEP50, 2 µM MTA; Tm minus Tm of DMSO vehicle control. Put shortly: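 Human PRMT5/MEP50 (2 µM) was preincubated 30 min with 2 µM MTA in 50 mM HEPES, 10 mM DTT, 250 mM NaCl with SYPRO Orange. Compound at 8 µM final (2.5% DMSO vehicle) was added for 10 minutes, then samples were heated 25°C to 95°C at 0.03°C/s. Tm was derived from the melt curve.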

In the next data set the target is hERG potassium channel (Homo sapiens, UniProt Q12809). Nature of the data set: hERG potassium channel inhibitory activity assay (CHO-hERG cells, tail current). The class given is cell-based. The conditions noted are these: inhibition of tail current, read-out: inhibitory activity (IC50) against the cardiac hERG potassium channel. The source says: Test Example 5: hERG potassium channel inhibitory activity assay
1 Study objective: The objective of this test example is to determine the inhibitory effect of the compound on the hERG potassium channel activity. 2 Experimental instruments and reagents: 2.1 Reagents
3. Experimental method • 3.1 Cell culture: The CHO cells stably expressing the hERG potassium channel (CHO-hERG) used in the experiment were obtained from Sophion Bioscience (Ballerup, Denmark), and passaged and cryopreserved at WuXi AppTec Co., Ltd. in Shanghai. The CHO-hERG cells were cultured and passaged in Ham's F-12 medium containing 1 × GlutaMAX, 10% foetal bovine serum, 100 µg/mL G418 and 100 µg/mL hygromycin B at 37°C with 5% CO2. • 3.2 Preparation of intracellular and extracellular solutions: The extracellular solution was prepared once a month, and aliquoted and stored in 1 L storage bottles. The intracellular solution was prepared once every three months, and aliquoted and cryopreserved at -20°C. The intracellular solution was thawed in a 37°C water bath before the experiment and then placed in an ice bath for later use. • 3.3 Preparation of compounds: The positive control drug amitriptyline hydrochloride and the compounds were dissolved in 100% DMSO (Sigma-Aldrich, D2650) to prepare 10 mM or 30 mM stock solutions. Before the experiment, the stock solutions of the test compounds were diluted with DMSO to prepare solutions 1000-fold or 333-fold higher than the desired test concentrations, and then further diluted 1000-fold or 333-fold with the extracellular solution to achieve the desired concentrations. • 3.4 Cell preparation: The CHO-hERG cells used in the experiment were cultured for at least two days. When the cell density reached more than 75%, the cells were digested with TrypLE, then resuspended in the extracellular solution, and centrifuged. The supernatant was discarded, and then the cells were further resuspended in 2 mL of extracellular solution for later use. • 3.4 Experimental data processing: In data processing, the peak tail current was baseline-corrected when evaluating the hERG blocking effect. The effect of each compound at various concentrations was expressed as the inhibition rate of the tail current. IC50 values were obtained by fitting the data to the Hill equation: I/Icontrol =Bottom + (Top-Bottom)/(1+10^((LogIC50-X) * HillSlope)) • Top: maximum effect; Bottom: minimum effect; Hillslope: slope; X: concentration of the test compound. • IC50: half-maximal inhibitory concentration of the test compound on hERG.
(The hERG channel carries a current that helps repolarise heart muscle cells.)

Data set [2] has as its system MTAP Knockout HCT116 cells. Nature of the data set: Cell proliferation inhibition (CellTiter-Glo), HCT116 MTAP knockout cells. The class given is cell-based. Particulars: for Selectivity: HCT116 IC50 versus MTAP Knockout HCT116 IC50. The essentials: (§1)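 Cells were grown in McCoy's 5A with 10% FBS, adhered overnight, then exposed to serial compound dilutions for 72-240 h at 37°C, 5% CO2, with a vehicle control. Viability was read as CellTiter-Glo luminescence, and IC50 came from nonlinear regression of inhibition rate against concentration.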
A general note: In ATP-based viability assays light output follows the ATP content of the culture.

A further data set has as its system HCT116 wild-type cells. The data set is described as follows: Cell proliferation inhibition (CellTiter-Glo), HCT116 wild-type cells. The class given is cell-based. Put shortly:
as §1

The nature of data set [3]: Pharmacokinetics in rats (plasma) after oral administration. The class given is in vivo. The conditions noted are these: SD rats, p.o. 5 mg/kg; for MRT inf: read-out: MRT0-∞.
Experimental: Test Example 4: Determination of the pharmacokinetics of the compounds of the present invention in rats (plasma) after oral administration.
1 Study objective: SD rats were used as test animals to study the pharmacokinetic behaviour of the following example compounds in rats (plasma) after oral administration at a dose of 5 mg/kg. 2 Test scheme • 2.1 Test drugs: Vehicle formula: 0.5% CMC-Na (1% Tween 80); the examples of the present invention, made in house. • 2.2 Test animals: 3 SD rats per group, male, purchased from Shanghai Bikai Keyi Biotechnology Co., Ltd., with animal license number (SCXK (Shanghai) 2018-0006, No.20180006037467). • 2.3 Administration: 3 SD rats per group, male, were fasted overnight and then respectively administered PO at a dose of 5 mg/kg and a volume of 10 mL/kg. • 2.4 Sample collection: 0.2 mL of blood was collected from the jugular vein of rats before administration and at 0, 0.25, 0.5, 1, 2, 4, 6, 8 and 24 h after administration, and placed in EDTA-K2test tubes, and the test tubes were centrifuged at 6,000 rpm at 4°C for 6 min to separate the plasma, which was stored at -80°C. The animals were fed 4 h after administration. • 2.5 Sample treatment • 1) 160 uL of acetonitrile was added to 40 uL of plasma sample for precipitation, and after mixing, the mixture was centrifuged at 3,500 × g for 5-20 minutes. • 2) 100 uL of the treated supernatant solution was taken for LC/MS/MS analysis to determine the concentration of the test compounds. • 2.6 Liquid phase analysis • Liquid phase conditions: Shimadzu LC-20AD pump;mass spectrometry conditions: AB Sciex API 4000 mass spectrometer • Chromatographic column: Phenomenex Gemiu 5 um C18 50 × 4.6 mm • Mobile phase: solution A: 0.1% formic acid in water, solution B: methanol • Flow rate: 1.0 mL/min, elution time: 0-4.0 min, with eluents as follows:
Experimental results and analysis: The main pharmacokinetic parameters were calculated using WinNonlin 8.2.
[4] abbreviates: Homo sapiens, HCT-116, read-out: MTAP Knockout HCT116 IC50.
Where [5] appears, read: Homo sapiens, HCT-116, read-out: HCT116 IC50.

Where two headings read alike, the source gives them in different places.

T1 sequence (O14744 whole entry): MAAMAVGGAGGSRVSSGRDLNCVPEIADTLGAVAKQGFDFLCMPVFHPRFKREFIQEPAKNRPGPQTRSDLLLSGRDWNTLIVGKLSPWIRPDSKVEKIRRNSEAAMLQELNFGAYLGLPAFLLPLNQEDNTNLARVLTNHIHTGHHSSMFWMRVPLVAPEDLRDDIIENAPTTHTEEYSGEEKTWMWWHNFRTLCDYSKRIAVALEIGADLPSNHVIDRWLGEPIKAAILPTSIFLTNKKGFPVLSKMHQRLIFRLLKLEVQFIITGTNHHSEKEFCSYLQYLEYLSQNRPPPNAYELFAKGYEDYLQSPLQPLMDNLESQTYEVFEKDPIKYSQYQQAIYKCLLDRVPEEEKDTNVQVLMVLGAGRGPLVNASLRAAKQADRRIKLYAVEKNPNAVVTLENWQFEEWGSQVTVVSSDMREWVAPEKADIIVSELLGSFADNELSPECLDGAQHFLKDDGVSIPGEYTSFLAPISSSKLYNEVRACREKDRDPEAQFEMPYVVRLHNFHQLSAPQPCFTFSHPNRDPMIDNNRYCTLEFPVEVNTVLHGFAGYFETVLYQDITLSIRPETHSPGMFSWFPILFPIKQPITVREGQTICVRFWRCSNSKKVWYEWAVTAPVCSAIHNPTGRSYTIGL
T1 sequence (Q9BQA1 whole entry partner): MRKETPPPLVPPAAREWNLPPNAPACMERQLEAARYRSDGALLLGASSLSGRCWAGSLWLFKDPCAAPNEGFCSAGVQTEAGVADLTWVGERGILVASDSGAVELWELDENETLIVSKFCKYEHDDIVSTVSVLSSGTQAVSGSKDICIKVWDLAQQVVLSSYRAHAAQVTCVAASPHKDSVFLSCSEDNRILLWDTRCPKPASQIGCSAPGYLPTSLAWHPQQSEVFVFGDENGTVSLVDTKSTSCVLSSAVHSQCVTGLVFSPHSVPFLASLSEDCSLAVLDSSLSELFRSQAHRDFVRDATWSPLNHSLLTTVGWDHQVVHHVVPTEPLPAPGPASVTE
hERG potassium channel, sequence (Q12809 whole entry): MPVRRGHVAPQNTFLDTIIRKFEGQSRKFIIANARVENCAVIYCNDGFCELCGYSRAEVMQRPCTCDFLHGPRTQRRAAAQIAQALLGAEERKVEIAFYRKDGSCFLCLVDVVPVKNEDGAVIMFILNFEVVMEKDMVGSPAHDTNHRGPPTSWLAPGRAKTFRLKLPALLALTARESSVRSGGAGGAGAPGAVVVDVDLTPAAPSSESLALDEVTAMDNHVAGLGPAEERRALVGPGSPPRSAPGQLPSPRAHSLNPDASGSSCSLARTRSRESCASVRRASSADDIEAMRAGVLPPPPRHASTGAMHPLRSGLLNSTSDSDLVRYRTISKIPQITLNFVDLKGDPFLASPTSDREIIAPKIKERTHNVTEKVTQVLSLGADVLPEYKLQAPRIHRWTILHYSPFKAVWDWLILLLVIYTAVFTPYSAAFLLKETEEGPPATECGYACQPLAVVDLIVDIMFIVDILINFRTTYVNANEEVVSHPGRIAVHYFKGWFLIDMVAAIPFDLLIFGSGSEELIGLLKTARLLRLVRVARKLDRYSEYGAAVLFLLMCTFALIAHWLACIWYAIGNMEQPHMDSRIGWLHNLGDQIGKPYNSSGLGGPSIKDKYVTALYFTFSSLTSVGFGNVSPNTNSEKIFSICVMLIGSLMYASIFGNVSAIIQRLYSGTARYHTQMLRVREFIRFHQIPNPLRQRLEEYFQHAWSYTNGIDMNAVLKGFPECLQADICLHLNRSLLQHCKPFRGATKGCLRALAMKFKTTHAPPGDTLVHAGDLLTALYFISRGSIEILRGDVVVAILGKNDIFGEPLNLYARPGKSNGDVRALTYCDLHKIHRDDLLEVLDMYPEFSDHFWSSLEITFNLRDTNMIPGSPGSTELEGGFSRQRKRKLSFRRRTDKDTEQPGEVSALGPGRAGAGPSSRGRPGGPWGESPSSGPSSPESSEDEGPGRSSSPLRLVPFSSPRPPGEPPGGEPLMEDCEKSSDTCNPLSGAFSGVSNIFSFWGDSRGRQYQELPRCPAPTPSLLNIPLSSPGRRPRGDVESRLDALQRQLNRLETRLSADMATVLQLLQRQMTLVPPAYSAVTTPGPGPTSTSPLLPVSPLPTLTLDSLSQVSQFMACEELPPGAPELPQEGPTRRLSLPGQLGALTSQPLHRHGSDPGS

Take `Nc1nc2cc3c(cc2n2cncc12)C(=O)N(Cc1ccc(C(F)(F)F)cn1)CCCOC3` [Example 176, 4-Amino-12-((5-(trifluoromethyl)pyridin-2-yl)methyl)-9,10,11,12-tetrahydroimidazo[1,5-a][1,5]oxazonino[8,7-g]quinoxalin-13(7H)-one]: the ΔTm (usually the shift of the melting midpoint relative to a reference) at 8 µM in data set [1] was 11.5 °C. Besides, the IC50 (usually the concentration that gives 50% inhibition) is over 30000 nM on hERG potassium channel; 15 nM in data set [2] (Homo sapiens, HCT-116, MTAP Knockout HCT116 cells, proliferation inhibition, Cell Titer-Glo, read-out: MTAP Knockout HCT116 IC50); 946 nM with HCT116 wild-type cells (Homo sapiens, HCT-116, HCT116 wild-type cells, proliferation inhibition, Cell Titer-Glo, read-out: HCT116 IC50). In data set [2], the Selectivity was 62.

With `Nc1nc2cc3c(cc2c2c1COC2)C(=O)N(Cc1ccc(C(F)(F)F)cn1)CCCOC3` [Example 178, 4-Amino-12-((5-(trifluoromethyl)pyridin-2-yl)methyl)-3,7,9,10,11,12-hexahydrofuro[3,4-c][1,5]oxazolino[7,8-g]quinolin-13(1H)-one], in data set [3] (rat, po), the AUC(0-inf) (as a rule, the area under the concentration-time curve extrapolated to infinity) came out at 2790 ng·h/mL; the half-life (commonly how long it takes for the measured level to halve) was 1.9 h; the MRT inf was determined as 3.7 h. Also, the Cmax (commonly the highest concentration seen after dosing) in data set [3] (rat, po, read-out: Cmax) was 544 ng/mL. Moreover, in data set [3] (rat, po, read-out: tmax), the time of peak concentration (Tmax) – broadly, the time at which the peak concentration occurs – amounted to 1.7 h. Moreover, the ΔTm at 8 µM in data set [1] is 11.2 °C. Besides, the IC50 on hERG potassium channel was over 30000 nM. For the same molecule, the Selectivity in data set [2] came out at 131. In addition, in data set [2] (setting [4]), the IC50 is 18 nM. In addition, the IC50 with HCT116 wild-type cells (setting [5]) amounted to 2380 nM.

With `Nc1nc2cc3c(cc2n2cncc12)C(=O)N(Cc1ccc(-c2c(F)cccc2F)cn1)CCCOC3` [Example 298, 4-Amino-12-((5-(2,6-difluorophenyl)pyridin-2-yl)methyl)-9,10,11,12-tetrahydroimidazo[1,5-a][1,5]oxazolo[8,7-g]quinoxalin-13(7H)-one], in data set [1], the ΔTm at 8 µM is 12.5 °C. The IC50 was over 30000 nM on hERG potassium channel, 2.7 nM in data set [2] (setting [4]) and 219 nM in the data set with HCT116 wild-type cells (setting [5]). In data set [2], the Selectivity worked out at 81.

For the molecule `Nc1nc2cc3c(cc2n2cncc12)C(=O)N(Cc1ccc(C(F)(F)F)cn1)CCCCOC3` [Example 417, 4-Amino-13-((5-(trifluoromethyl)pyridin-2-yl)methyl)-10,11,12,13-tetrahydro-7H-imidazo [1,5-a][1,6] oxazino [3,4-g] quinoxalin-14(9H)-one], the ΔTm at 8 µM in data set [1] was 11.1 °C. For the same molecule, the IC50 at hERG potassium channel was over 30000 nM; in data set [2] (setting [4]), 11 nM; with HCT116 wild-type cells (setting [5]), 3800 nM. The Selectivity in data set [2] was determined as 346.

Regarding `Nc1nc2cc3c(cc2c2c1COC2)C(=O)N(Cc1ccc(S(F)(F)(F)(F)F)cn1)CCCOC3` [Example 434, 4-Amino-3-methyl-12-((5-(pentafluorosulphanyl)pyridin-2-yl)methyl)-3,7,9,10,11,12-hexahydrofuro[3,4-c][1,5]oxazolo[7,8-g]quinolin-13(1H)-one], in data set [3] (rat, po), the AUC(0-inf) stood at 2330 ng·h/mL, the half-life is 3.1 h and the MRT inf was found to be 5.3 h. Also, the Cmax in data set [3] (rat, po, read-out: Cmax) stood at 273 ng/mL. Besides, the Tmax in data set [3] (rat, po, read-out: tmax) is 2 h. In data set [1], the shift in melting temperature (ΔTm) at 8 µM was 12.2 °C. Further, the Selectivity in data set [2] is reported as 87. The IC50 in data set [2] (setting [4]) turned out to be 6.7 nM. The IC50 in the data set with HCT116 wild-type cells (setting [5]) came out at 578 nM.

Consider `C[C@H]1OCc2c1c(N)nc1cc3c(cc21)C(=O)N(Cc1ccc(S(F)(F)(F)(F)F)cn1)CCCOC3` [Example 437-P1, (R)-4-Amino-3-methyl-12-((5-(pentafluorosulphanyl)pyridin-2-yl)methyl)-3,7,9,10,11,12-hexahydrofuro[3,4-c][1,5]oxazolo[7,8-g]quinolin-13(1H)-one], for which, in data set [3] (rat, in vivo, po), the AUC(0-inf) amounted to 2050 ng·h/mL, the half-life is 2.4 h and the MRT inf is 3.7 h. Further, the Cmax in data set [3] (rat, in vivo, po, read-out: Cmax) is 318 ng/mL. In data set [3] (rat, in vivo, po, read-out: tmax), the Tmax was determined as 2 h. Besides, the ΔTm at 8 µM in data set [1] is 12.6 °C. Further, in data set [2], the Selectivity came out at 85. In addition, in data set [2] (setting [4]), the half-inhibitory concentration (IC50) was determined as 2.2 nM. In addition, in the data set with HCT116 wild-type cells (setting [5]), the 50% inhibitory concentration (IC50) was determined as 187 nM.

`Nc1nc2cc3c(cc2c2c1COC2)C(=O)N(Cc1ccc(C(F)(F)F)cn1)CC/C=C\3` [Example 638, (Z)-4-Amino-11-((5-(trifluoromethyl)pyridin-2-yl)methyl)-3,9,10,11-tetrahydronaphthyrido[3,4-g]furo[3,4-e]quinoxalin-12(1H)-one]: in data set [3] (rat, po), the AUC(0-inf) was 929 ng·h/mL, the half-life is 1.8 h and the MRT inf stood at 3.5 h. For the same molecule, the Cmax in data set [3] (rat, po, read-out: Cmax) was found to be 241 ng/mL. Further, the Tmax in data set [3] (rat, po, read-out: tmax) was 1.7 h. Moreover, the ΔTm at 8 µM in data set [1] came to 12.3 °C. Also, the Selectivity in data set [2] was determined as 71. The half-inhibitory concentration (IC50) in data set [2] (setting [4]) is 4.5 nM. The IC50 in the data set on HCT116 wild-type cells (setting [5]) worked out at 318 nM.

Consider “(Z)-4-Amino-12-((5-(trifluoromethyl)pyridin-2-yl)methyl)-9,10,11,12-tetrahydro-13H-azonino[4,3-g]imidazo[1,5-a]quinoxalin-13-one [Example 171]”, for which, in data set [3], the “AUC 0-∞” value is 1058 ng·h/mL, the Cmax was found to be 283 ng/mL, the “MRT0-∞” value was 2.9 h and the time of peak concentration (Tmax) came out at 1.0 h. This molecule gave a t1/2 in data set [3] of 1.6 h. The “ΔTm (°C)” value in data set [1] is 12.03 °C. Moreover, in data set [2], the Selectivity was 90. Also, the IC50 in data set [2] (MTAP Knockout HCT116 cells, proliferation inhibition, Cell Titer-Glo, read-out: MTAP Knockout HCT116 IC50) amounted to 2.6 nM. The IC50 in the data set on HCT116 wild-type cells (HCT116 wild-type cells, proliferation inhibition, Cell Titer-Glo, read-out: HCT116 IC50) amounted to 236 nM.

The record behind these values is patent EP4818176A1, “TETRACYCLIC DERIVATIVE INHIBITOR, AND PREPARATION METHOD AND USE THEREFOR” (Shanghai Hansoh Biomedical Co., Ltd., priority 2023, dated 2025).
